Data on two compounds can be found in patent US20210186860A1, “Improved Delivery Systems for Moieties Including CBD Enhanced Combinations, Formulations and Chimeras” (LIFE TECH GLOBAL, LLC, priority 2017, published 2021).

Each structure is given as a SMILES string.

The data set can be described thus: Transdermal flux / transdermal delivery from patch. Conditions: enhancer at 3% in PIB adhesive. It counts as in vitro ADME.

For the compound `CCCCCCCCCCCCN1CCCCCC1=O` [Azon], the “transdermal delivery from PIB” value is listed as “double”.
As for `CCCCCCCC/C=C\CCCCCCCC(=O)O` [oleic acid], the “transdermal delivery from PIB” value is “double”.
